{"source": "patent US20240374631A1", "about": "“A COMPOSITION FOR IMPROVING GUT MICROBIOTA, BEHAVIOURAL PATTERN, ALPHA-SYNUCLEIN LEVELS, SLEEP PATTERN AND/OR SERUM MELATONIN” (GN Corporation Co Ltd, priority 2021, published 2024)", "tested_on": "gut microbiota", "experiment": "Gut microbiome analysis (16S rRNA sequencing of fecal samples) in STAM model of NASH", "format": "in vivo, C57BL/6J mice", "description": "The study is reported in accordance with Animal Research: Reporting of In Vivo Experiments (ARRIVE) guidelines. C57BL/6J mice were obtained from Japan SLC, Inc. (Japan). All animals used in this study were cared for under the following guidelines: Act on Welfare and Management of Animals (Ministry of the Environment, Japan, Act No. 105 of Oct. 1, 1973), standards relating to the care and management of laboratory animals and relief of pain (Notice No. 88 of the Ministry of the Environment, Japan, Apr. 28, 2006) and the guidelines for proper conduct of animal experiments (Science Council of Japan, Jun. 1, 2006). Protocol approvals were obtained from SMC Laboratories, Japan's IACUC (Study reference no: […] Mice were maintained in a specific pathogen-free (SPF) facility under controlled conditions of temperature (23±3° C.), humidity (50±20%), lighting (12-hour artificial light and dark cycles; light from 8:00 to 20:00) and air exchange. The STAM model of NASH was induced as previously described [D10]. Mice were given a single subcutaneous injection of 200 μg streptozotocin (STZ, Sigma-Aldrich, USA) solution 2 days after birth and fed with a high-fat diet (HFD, 57 kcal % fat, Cat #HFD32, CLEA Japan, Inc., Japan) from 4-9 weeks of age. All mice develop liver steatosis and diabetes and at […] mice had established steatohepatitis, histologically. Studygroups: There were five study groups, described below. Eight mice were included in each study group. Eight NASH mice were orally administered vehicle supplemented with AFO-202 Beta Glucan at a dose of 1 mg/kg in a volume of 5 mL/kg once daily from 6 to 9 weeks of age. Eight NASH mice were orally administered vehicle supplemented with Telmisartan at a dose of 10 mg/kg once daily from 6 to 9 weeks of age. Frequency: Fecal samples were collected at the 6 weeks of age (before administration) and 9 weeks of age (before sacrifice). Procedure: At 6 weeks of age, fecal samples were collected from each mouse by clean catch method. […] A sterile petri dish was placed on the bench. Gently massage the abdomen, position the bottom of mouse over a fresh petri dish, and collect 1-2 fecal pellets. At sacrifice, fecal samples were aseptically collected from cecum. The tubes with feces were placed on ice immediately. These tubes were snap frozen in liquid nitrogen and stored at -80° C. for shipping. In this analysis, the 16S rRNA sequence data acquired by the next-generation sequencer from the fecal […] was used to perform community analysis using the QIIME2 program for microbial community analysis. The raw read data in FASTQ format output from the next-generation sequencer was trimmed to remove adapter sequences and low QV regions that may be included in the data. Cutadapt was used to remove adapter sequences from DNA sequencing reads. Trimmomatic was used as read trimming tool for Illumina NGS data. The adapter sequence was trimmed using the adapter trimming program “cutadapt” if the Trimming of the region at the end of the read sequence overlapped the corresponding sequence by at least one base (mismatch tolerance: 20%). When reads containing N were present in at least one of Read1 and Read2, both Read1 and Read2 were removed. Trimming of low QV regions was performed on the read data after processing using the QV trimming program “Trimmomatic” under the following conditions. The window of 20 bases is slid from the 5' side, and the area where the average QV is less than 20 is trimmed. After trimming, only the reads with more than 50 bases remaining in both Read1 and Read2 were taken as output. The microbial community analysis based on 16S rRNA sequence was performed on the sequence data trimmed in the previous section using the microbial community analysis program “QIIME2”. The annotation program “sklearn” included in QIIME2 is used to annotate the ASV (OTU) sequences. […]"}
{"smiles": "CCCc1nc2c(C)cc(-c3nc4ccccc4n3C)cc2n1Cc1ccc(-c2ccccc2C(=O)O)cc1", "note": "[Telmisartan]", "values": [{"measurement": "Abundance Lachnospiraceae/[Ruminococcus]/gnavus", "setting": "post, line r79", "value": 260}, {"measurement": "Abundance Bacteroidaceae/Bacteroides/—", "setting": "post, line r80", "value": 1596}, {"measurement": "Abundance S24-7/—/—", "setting": "post, line r81", "value": 125}, {"measurement": "Abundance Lachnospiraceae/[Ruminococcus]/gnavus", "setting": "post, line r83", "value": 281}, {"measurement": "Abundance Ruminococcaceae/Oscillospira/—", "setting": "post, line r84", "value": 393}, {"measurement": "Abundance Alcaligenaceae/Sutterella/—", "setting": "post, line r86", "value": 63}, {"measurement": "Abundance S24-7/—/—", "setting": "post, line r87", "value": 54}, {"measurement": "Abundance Other/Other/Other", "setting": "post, line r90", "value": 0}, {"measurement": "Abundance Lachnospiraceae/[Ruminococcus]/gnavus", "setting": "post, line r91", "value": 325}, {"measurement": "Abundance S24-7/—/—", "setting": "post, line r92", "value": 153}, {"measurement": "Abundance Rikenellaceae/—/—", "setting": "post, line r93", "value": 134}, {"measurement": "Abundance Lachnospiraceae/[Ruminococcus]/gnavus", "setting": "post, line r94", "value": 30}, {"measurement": "Abundance Lachnospiraceae/—/—", "setting": "post, line r95", "value": 359}, {"measurement": "Abundance Clostridiaceae/Other/Other", "setting": "post, line r96", "value": 39}, {"measurement": "Abundance Lachnospiraceae/—/—", "setting": "post, line r97", "value": 239}, {"measurement": "Abundance Ruminococcaceae/Oscillospira/—", "setting": "post, line r98", "value": 138}, {"measurement": "Abundance Enterococcaceae/Enterococcus/—", "setting": "post, line r99", "value": 0}, {"measurement": "Abundance Rikenellaceae/—/—", "setting": "post, line r100", "value": 96}, {"measurement": "Abundance S24-7/—/—", "setting": "post, line r101", "value": 79}, {"measurement": "Abundance Lactobacillaceae/Lactobacillus/reuteri", "setting": "post, line r102", "value": 0}, {"measurement": "Abundance Bacteroidaceae/Bacteroides/acidifaciens", "setting": "post, line r103", "value": 127}, {"measurement": "Abundance Ruminococcaceae/Oscillospira/—", "setting": "post, line r104", "value": 451}, {"measurement": "Abundance Enterobacteriaceae/Escherichia/coli", "setting": "post, line r105", "value": 0}, {"measurement": "Abundance Ruminococcaceae/Oscillospira/—", "setting": "post, line r106", "value": 280}, {"measurement": "Abundance —/—/—", "setting": "post, line r107", "value": 254}, {"measurement": "Abundance S24-7/—/—", "setting": "post, line r108", "value": 92}, {"measurement": "Abundance —/—/—", "setting": "post, line r109", "value": 0}, {"measurement": "Abundance Other/Other/Other", "setting": "post, line r110", "value": 251}, {"measurement": "Abundance Lachnospiraceae/—/—", "setting": "post, line r111", "value": 163}, {"measurement": "Abundance Lachnospiraceae/[Ruminococcus]/gnavus", "setting": "post, line r112", "value": 63}, {"measurement": "Abundance Lachnospiraceae/—/—", "setting": "post, line r113", "value": 117}, {"measurement": "Abundance Enterobacteriaceae/Klebsiella/Other", "setting": "post, line r114", "value": 33}, {"measurement": "Abundance Lachnospiraceae/—/—", "setting": "post, line r115", "value": 187}, {"measurement": "Abundance —/—/—", "setting": "post, line r117", "value": 261}, {"measurement": "Abundance Lactobacillaceae/Lactobacillus/—", "setting": "post, line r118", "value": 0}, {"measurement": "Abundance Other/Other/Other", "setting": "post, line r119", "value": 248}, {"measurement": "Abundance —/—/—", "setting": "post, line r120", "value": 0}, {"measurement": "Abundance Erysipclotrichaceae/Allobaculum/—", "setting": "post, line r121", "value": 59}, {"measurement": "Abundance —/—/—", "setting": "post, line r122", "value": 84}, {"measurement": "Abundance Lachnospiraceae/—/—", "setting": "post, line r123", "value": 271}, {"measurement": "Abundance —/—/—", "setting": "post, line r124", "value": 173}, {"measurement": "Abundance Other/Other/Other", "setting": "post, line r125", "value": 269}, {"measurement": "Abundance Lactobacillaceae/Lactobacillus/reuteri", "setting": "post, line r126", "value": 0}, {"measurement": "Abundance Ruminococcaceae/Oscillospira/—", "setting": "post, line r127", "value": 273}, {"measurement": "Abundance Lachnospiraceae/—/—", "setting": "post, line r128", "value": 139}, {"measurement": "Abundance S24-7/—/—", "setting": "post, line r129", "value": 125}, {"measurement": "Abundance S24-7/—/—", "setting": "post, line r130", "value": 111}, {"measurement": "Abundance Lachnospiraceae/—/—", "setting": "post, line r131", "value": 119}, {"measurement": "Abundance S24-7/—/—", "setting": "post, line r133", "value": 74}, {"measurement": "Abundance Lachnospiraceae/—/—", "setting": "post, line r134", "value": 98}, {"measurement": "Abundance —/—/—", "setting": "post, line r135", "value": 376}, {"measurement": "Abundance Coriobacteriaceae/Adlercreutzia/—", "setting": "post, line r136", "value": 30}, {"measurement": "Abundance —/—/—", "setting": "post, line r137", "value": 118}, {"measurement": "Abundance Clostidiaceae/Other/Other", "setting": "post, line r138", "value": 0}, {"measurement": "Abundance Turicibacteraceae/Turicibacter/—", "setting": "post, line r139", "value": 0}, {"measurement": "Abundance Ruminococcaceae/Ruminococcus/—", "setting": "post, line r140", "value": 143}, {"measurement": "Abundance Ruminococcaceae/Oscillospira/—", "setting": "post, line r141", "value": 119}, {"measurement": "Abundance Dehalobacteriaceae/Dehalobacterium/—", "setting": "post, line r142", "value": 268}, {"measurement": "Abundance Staphylococcaceae/Staphylococcus/Other", "setting": "post, line r143", "value": 34}, {"measurement": "Abundance Rikenellaceae/—/—", "setting": "post, line r144", "value": 97}, {"measurement": "Abundance Lachnospiraceae/—/—", "setting": "post, line r145", "value": 98}, {"measurement": "Abundance —/—/—", "setting": "post, line r146", "value": 68}, {"measurement": "Abundance Staphylococcaceae/Staphylococcus/sciuri", "setting": "post, line r147", "value": 41}, {"measurement": "Abundance —/—/—", "setting": "post, line r148", "value": 0}, {"measurement": "Abundance Ruminococcaceae/Ruminococcus/—", "setting": "post, line r149", "value": 124}, {"measurement": "Abundance Coriobacteriaceae/Adlercreutzia/—", "setting": "post, line r150", "value": 0}, {"measurement": "Abundance Ruminococcaceae/Oscillospira/—", "setting": "post, line r151", "value": 120}, {"measurement": "Abundance Lachnospiraceae/Clostridium/Other", "setting": "post, line r152", "value": 40}, {"measurement": "Abundance Lachnospiraceae/Coprococcus/—", "setting": "post, line r153", "value": 85}, {"measurement": "Abundance Desulfovibrionaceae/—/—", "setting": "post, line r154", "value": 148}, {"measurement": "Abundance —/—/—", "setting": "post, line r155", "value": 103}, {"measurement": "Abundance Lachnospiraceae/—/—", "setting": "post, line r156", "value": 272}, {"measurement": "Abundance Dehalobacteriaceae/Dehalobacterium/—", "setting": "post, line r157", "value": 239}, {"measurement": "Abundance Coriobacteriaceae/Adlercreutzia/—", "setting": "post, line r158", "value": 0}, {"measurement": "Abundance Lachnospiraceae/—/—", "setting": "post, line r159", "value": 119}, {"measurement": "Abundance Lachnospiraceae/—/—", "setting": "post, line r160", "value": 14}, {"measurement": "Abundance S24-7/—/—", "setting": "post, line r162", "value": 51}, {"measurement": "Abundance Streptococcaceae/Streptococcus/—", "setting": "post, line r163", "value": 44}, {"measurement": "Abundance Lachnospiraceae/[Ruminococcus]/gnavus", "setting": "post, line r164", "value": 37}, {"measurement": "Abundance Lachnospiraceae/—/—", "setting": "post, line r165", "value": 173}, {"measurement": "Abundance Lachnospiraceae/—/—", "setting": "post, line r166", "value": 10}, {"measurement": "Abundance Coriobacteriaceae/Adlercreutzia/—", "setting": "post, line r167", "value": 8}, {"measurement": "Abundance Lachnospiraceae/—/—", "setting": "post, line r168", "value": 57}, {"measurement": "Abundance Erysipelotrichaceae/Clostridium/cocleatum", "setting": "post, line r169", "value": 119}, {"measurement": "Abundance Lachnospiraceae/—/—", "setting": "post, line r171", "value": 81}, {"measurement": "Abundance Bacteroidaceae/Bacteroides/—", "setting": "post, line r172", "value": 468}, {"measurement": "Abundance Ruminococcaceae/Oscillospira/—", "setting": "post, line r173", "value": 53}, {"measurement": "Abundance Ruminococcaceae/—/—", "setting": "post, line r174", "value": 72}, {"measurement": "Abundance Lachnospiraceae/Other/Other", "setting": "post, line r175", "value": 90}, {"measurement": "Abundance Lachnospiraceae/Dorea/—", "setting": "post, line r176", "value": 154}, {"measurement": "Abundance Lachnospiraceae/—/—", "setting": "post, line r177", "value": 94}, {"measurement": "Abundance S24-7/—/—", "setting": "post, line r178", "value": 0}, {"measurement": "Abundance Lachnospiraceae/—/—", "setting": "post, line r179", "value": 138}, {"measurement": "Abundance Lactobacillaceae/Lactobaccilus/Other", "setting": "post, line r180", "value": 0}, {"measurement": "Abundance —/—/—", "setting": "post, line r181", "value": 48}, {"measurement": "Abundance Ruminococcaceae/Oscillospira/—", "setting": "post, line r182", "value": 101}, {"measurement": "Abundance S24-7/—/—", "setting": "post, line r184", "value": 71}, {"measurement": "Abundance [Mogibacteriaceae]/—/—", "setting": "post, line r185", "value": 28}, {"measurement": "Abundance Peptococcaceae/—/—", "setting": "post, line r186", "value": 42}, {"measurement": "Abundance —/—/—", "setting": "post, line r187", "value": 40}, {"measurement": "Abundance —/—/—", "setting": "post, line r188", "value": 213}, {"measurement": "Abundance S24-7/—/—", "setting": "post, line r189", "value": 19}, {"measurement": "Abundance: Ruminococcaceae, Oscillospira, —", "setting": "pre (baseline), line r191", "value": 97}, {"measurement": "Abundance: Lachnospiraceae, [Ruminococcus], gnavus", "setting": "pre (baseline), line r192", "value": 33}]}
